This note sets out measurements from patent US6984640B1, “Antiparasitic artemisinin derivatives (endoperoxides)” (Bayer Aktiengesellschaft, priority 1998, dated 2006).

What all share (format): cell-based
The subject of test [1] is Plasmodium falciparum W2 strain (chloroquine resistant). Nature of the test: In vitro screening against Plasmodium falciparum, 3H-hypoxanthine incorporation, W2 strain. The conditions noted are these: for In vitro activity: (IC10) / In vitro activity: IC50 / In vitro activity: IC90: 66 hours incubation. From the text:
(§1) Two parasite strains—W2 resistant to chloroquine, and D6 sensitive to chloroquine but resistant to mefloquine were used. In Table IV below, the best compounds should show no cross resistance between the two strains.
(§2) The assay relies on incorporation of radiolabelled hypoxanthine by the parasite and inhibition of incorporation is attributed to activity of known or candidate antimalarial drugs. For each assay, proven antimalarials such as chloroquine, mefloquine, quinine, artemisinin and pyrimethamine were used as controls. The incubation period was 66 hours, and the starting parasitemia was 0.2% with 1% hematocrit. The medium was an RPMI-1640 culture with no folate or p-aminobenzoic acid. Albumax rather than 10% normal heat inactivated human plasma was used as, with Albumax, less protein binding is observed, and compounds elicit slightly higher activities in this model. If a compound was submitted with no prior knowledge of activity, it was dissolved directly in dimethyl sulphoxide (DMSO), and diluted 400 fold with complete culture medium. The unknown compound was started at a maximum concentration of 50,000 ng ml^−1 and sequentially diluted 2-fold for 11 times to give a concentration range of […]. These dilutions were performed automatically by a Biomek 1000 Liquid Handling System in 96-well microtiter plates. The diluted drugs were then transferred to test plates, 200 μl of parasitized erythrocytes were added, and incubated at 37° C. in a controlled environment of 5% CO2, 5% O2 and 90% N2. After 42 hours, 25 μl of ^3H-hypoxanthine was added, and the plates incubated for an additional 24 hours. After 66 hours, the plates were frozen at −70° C. to lyse the red cells, and then thawed and harvested onto glass fiber filter mats in a 96-well harvester. The filter mats were then counted in a scintillation counter. For each drug, the concentration response profile was determined and 50%, 90% and 10% inhibitory concentrations (IC50 IC90 and IC10) were determined by a non-linear logistic dose response analysis program.
(§3) A prescreen format can be used wherein a 3-dilution assay may be used to determine activity at high medium or low concentrations. The concentrations were selected as 50,000, 500 and 50 ng ml^−1. These were performed in duplicate on a 96-well format plate with 14 test compounds and one known (standard) compound per plate. The system was automated with a Biomek diluter for mixing and diluting the drugs, and adding drugs and parasites to a test plate. In the prescreen format, if the ANALYSIS FIELD (AP) has a “<”, then the compound was “very active” and the IC values are most likely to be below the last dilution value (in nanograms/ml), which is listed next to AF. In most cases, these compounds were run again at lower starting concentration to determine the true IC value. If the AF has a “>”, then the IC value is greater than the prescreen dilution value; thus “AF>250” means that the IC value is greater than 250 ng ml^−1 and no further screening is carried out. In such cases, values of 0.00 are entered for IC values.

Test [2] deals with Plasmodium falciparum D6 strain (chloroquine sensitive). Kind of test: In vitro screening against Plasmodium falciparum, 3H-hypoxanthine incorporation, D6 strain. Particulars: 66 hours incubation.
From the text: as §1, §2, §3

A further test concerns Neospora caninum. Nature of the test: Screening against Neospora caninum cell cultures in vitro (VERO or ED host cells). More on the design: key: 0 = no effect monolayer completely destroyed; 1 = weak effect monolayer partly destroyed, parasite clumps can be seen; 2 = full effect monolayer intact, no tachyzoites observable; T = cytotoxic cells are dead, lysed. Particulars: microscopic evaluation 4 days after treatment. Here is the method:
Screening was conducted in 96-well plates (Falcon 3872). A monolayer of host cells (VERO or ED) were placed on a cell culture plate. Non-infected mono-layers of cells were cultured in two 50 ml tissue culture bottles ([…] cell culture area). The cell layer was detached with trypsin-EDTA (5 ml. Gibco 45300-019) in a CO2-culture cupboard at 37° C. After 10 minutes, most of the cells were detached. The cells were transferred with a 5 ml pipette into a 50 ml centrifuge tube (Greiner, B769331) containing about 1 ml warmed fetal calf serum. After centrifugation for 5 minutes at 1500 rpm (Varifuge 3.0, Heraeus), the liquid was removed and the cell pellet suspended in RPMI medium (100 ml, 95% RPMI 1640, 2% FCS, 1% L-glutamine, 1% sodium hydrogen carbonate, 1% penicillin/streptomycin). The cell suspension was pipetted into six 96-well plates at 150 μl per well. The coated cell culture plates were placed in an incubation cupboard at 37° C. under 5% CO2 for 24 hours. The cells were then infected with Neospora caninum tachyzoites at a concentration of 48,000 tachyzoites per well. This was followed by incubation at 37° C. under 5% CO2 for 24 hours.
The test compounds (0.5-1.5 mg) were weighed into 1.5 ml eppendorf vessels and dissolved in 1 ml dimethyl sulphoxide, corresponding to a dilution of about 1×10^−3 g ml^−1. The medium used for further dilution consisted of 87% RPMI 1640, 10% FCS, 1% L-glutamine, 1% sodium hydrogen carbonate, 1% penicillin/streptomycin. In the first screening, concentrations of […], […] and 10^−7 g ml^−1 were used. The diluted preparations were then transferred to the cell culture plates at a volume of 150 μl per well after 24 hour infection with Neospora caninum. For the first row, untreated medium was used; this row contained infected and uninfected cells as controls. The cell plate was incubated at 37° C. under 5% CO2 for 5 days. Microscopic evaluation was conducted 4 days after treatment and 5 days after infection at a magnification of 25×10 in an inverse microscope according to the following evaluation scheme.

The next test concerns Eimeria tenella. Nature of the test: Screening against Eimeria tenella cell cultures in vitro (chick kidney cells). More on the design: key: 3 = very active no intact parasites/well; 2 = active 1-6 parasites per well; 1 = weakly active up to 1 intact schizont/optical field of vision; 0 = inactive >1 intact schizont/optical field of vision; T = cytotoxic host cells are dead. Particulars: day 5 post infection. Here is the method: Cells from kidneys of 19 day old chicks are cultured as monolayers in 96-well plates (Falcon 3872) in a medium of Hanks lactalbumine hydrolysate, 5% fetal calf serum, 1% glutamine and 1% non-essential amino acids. After two days at 42° C. under 5% CO2, the culture was infected with excised sporozoites of Eimeria tenella at about […] per well. Test compounds were dissolved in DKSO and diluted with culture medium to a maximum end concentration of 10 μg ml^−1. The dilution steps were 1:10. On day 5 post infection, the cultures were evaluated under a microscope at 100-fold magnification and the condition of the host cells and the amount of intact schizonts and free merozoites was determined.

As for `COc1cc(OC)c(C2OC3OC4(C)CCC5C(C)CCC(C2C)C35OO4)c(OC)c1` (mixture of isomers) [Example 12], in test [1], the “In vitro activity: (IC10)” value amounted to 0.47 ng/mL, the “In vitro activity: IC50” value came out at 0.78 ng/mL and the “In vitro activity: IC90” value stood at 1.32 ng/mL. Further, in test [2], the “In vitro activity: (IC10)” value is 0.35 ng/mL, the “In vitro activity: IC50” value turned out to be 0.77 ng/mL and the “In vitro activity: IC90” value was found to be 1.70 ng/mL.

Turning to `CC1CCC2[C@@H](C)C(=O)OC3O[C@]4(C)CCC1C32OO4` (stereo partly drawn) [Artemisinin, artemisinin], the “Evaluation of effect against Neospora caninum” value (from here on “Evaluation of effect”) in the test with Neospora caninum (Dose 10^−5 g/ml) worked out at 0. The results for the “Effectiveness rating against Eimeria tenella” value (shortened to “Effectiveness rating”) in the test on Eimeria tenella (Dose 10^−5 g/ml), in the test with Eimeria tenella (Dose 10^−6 g/ml) and with Eimeria tenella (Dose 10^−7 g/ml) were 2 (2 = active 1-6 parasites per well), 1 (1 = weakly active up to 1 intact schizont/optical field of vision) and 0 (0 = inactive >1 intact schizont/optical field of vision), respectively.

Consider `CC1CCC2C(C)C(F)OC3OC4(C)CCC1C32OO4` (stereo not drawn) [Example 1, 10β-fluoro-10-deoxo-10-dihydroartemisinin], for which the “In vitro activity: IC50” value stood at 0.69 ng/mL in test [1] and 0.74 ng/mL in test [2]. The “In vitro activity: IC90” value was determined as 0.98 ng/mL in test [1] and 1.36 ng/mL in test [2].

As for `CC1CCC2C(C)C(c3ccccc3)OC3OC4(C)CCC1C32OO4` (stereo not drawn) [Example 2, 10β-phenyl-10-deoxo-10-dihydroartemisinin], the results for the “Evaluation of effect” value in the test on Neospora caninum (Dose 10^−5 g/ml), in the test with Neospora caninum (Dose 10^−6 g/ml) and with Neospora caninum (Dose 10^−7 g/ml) were 1, 1 and 0, respectively. In addition, the “In vitro activity: (IC10)” value in test [1] came to 0.19 ng/mL; in test [2], 0.53 ng/mL. For the same compound, the “In vitro activity: IC50” value was found to be 0.31 ng/mL in test [1] and 0.73 ng/mL in test [2]. The “In vitro activity: IC90” value in test [1] was determined as 0.52 ng/mL; in test [2] it was 0.99 ng/mL. In addition, the “Effectiveness rating” value with Eimeria tenella (Dose 10^−5 g/ml) is 2 (2 = active 1-6 parasites per well); with Eimeria tenella (Dose 10^−6 g/ml), 2 (2 = active 1-6 parasites per well); in the test with Eimeria tenella (Dose 10^−7 g/ml), 1 (1 = weakly active up to 1 intact schizont/optical field of vision); with Eimeria tenella (Dose 10^−8 g/ml), 0 (0 = inactive >1 intact schizont/optical field of vision).

`COc1ccc(C2O[C@@H]3O[C@@]4(C)CC[C@H]5[C@H](C)CC[C@@H]([C@H]2C)[C@@]35OO4)c(OC)c1` (stereo partly drawn) [Example 4, 10-(2′,4′-dimethoxyphenyl)-10-deoxo-10-dihydroartemisinin]: in test [1], the “In vitro activity: (IC10)” value is 0.40 ng/mL, the “In vitro activity: IC50” value was 0.84 ng/mL and the “In vitro activity: IC90” value was determined as 1.74 ng/mL. Further, in test [2], the “In vitro activity: (IC10)” value amounted to 0.52 ng/mL, the “In vitro activity: IC50” value stood at 1.05 ng/mL and the “In vitro activity: IC90” value is 2.10 ng/mL.

Regarding `CC1CCC2C(C)C(Nc3ccc(F)cc3)OC3OC4(C)CCC1C32OO4` (stereo not drawn) [Example 16], in test [1], the “In vitro activity: (IC10)” value came out at 0.49 ng/mL, the “In vitro activity: IC50” value amounted to 0.64 ng/mL and the “In vitro activity: IC90” value amounted to 0.84 ng/mL. Besides, in test [2], the “In vitro activity: (IC10)” value came to 0.48 ng/mL, the “In vitro activity: IC50” value is 0.61 ng/mL and the “In vitro activity: IC90” value was 0.78 ng/mL.

As to `CC1CCC2C(C)C(NCc3ccccc3)OC3OC4(C)CCC1C32OO4` (stereo not drawn) [Example 21], in the test with Neospora caninum (Dose 10^−5 g/ml), the “Evaluation of effect” value turned out to be 2. Further, in the test with Neospora caninum (Dose 10^−6 g/ml), the “Evaluation of effect” value is 0. In addition, in test [2], the “In vitro activity: (IC10)” value was found to be 0.79 ng/mL, the “In vitro activity: IC50” value came out at 1.77 ng/mL and the “In vitro activity: IC90” value was 3.96 ng/mL. Besides, the “Effectiveness rating” value in the test with Eimeria tenella (Dose 10^−6 g/ml) is 0 (0 = inactive >1 intact schizont/optical field of vision).

Turning to `CCN(CC)C1OC2OC3(C)CCC4C(C)CCC(C1C)C24OO3` (stereo not drawn) [Example 26], the “ANALYSIS FIELD (AF): bound on the IC values in prescreen format” value in test [1] (prescreen 3-dilution assay, 0.00 entered for IC values) was 0.00; 0.00 AF < 4 ng/ml. Further, in test [2], the “In vitro activity: (IC10)” value amounted to 5.05 ng/mL, the “In vitro activity: IC50” value was 9.05 ng/mL and the “In vitro activity: IC90” value turned out to be 16.24 ng/mL.

Consider `CC(NC1OC2OC3(C)CCC4C(C)CCC(C1C)C24OO3)c1ccccc1` (stereo not drawn) [Example 30], for which the figures for the “Evaluation of effect” value in the test on Neospora caninum (Dose 10^−5 g/ml) and in the test with Neospora caninum (Dose 10^−6 g/ml) were 1 and 0, respectively. Besides, the “In vitro activity: (IC10)” value in test [2] is 6.74 ng/mL. For the same compound, the “In vitro activity: IC50” value in test [2] stood at 11.20 ng/mL. In addition, the “In vitro activity: IC90” value in test [2] worked out at 18.61 ng/mL. The “Effectiveness rating” value with Eimeria tenella (Dose 10^−5 g/ml) was “T”; in the test with Eimeria tenella (Dose 10^−6 g/ml), 2 (2 = active 1-6 parasites per well); with Eimeria tenella (Dose 10^−7 g/ml), 0 (0 = inactive >1 intact schizont/optical field of vision).

In the case of `CC1CCC2C(C)C(c3ccc(Br)cc3)OC3OC4(C)CCC1C32OO4` (stereo not drawn) [Example 38], in test [1], the “In vitro activity: (IC10)” value was determined as 0.55 ng/mL, the “In vitro activity: IC50” value is 1.23 ng/mL and the “In vitro activity: IC90” value was 2.76 ng/mL. Moreover, in test [2], the “In vitro activity: (IC10)” value came out at 0.22 ng/mL, the “In vitro activity: IC50” value stood at 0.90 ng/mL and the “In vitro activity: IC90” value came out at 3.69 ng/mL.

Take `COc1cc(OC)c(C2OC3OC4(C)CCC5C(C)CCC(C2C)C35OO4)c(OC)c1` (stereo not drawn) [Example 44]: in test [1], the “In vitro activity: (IC10)” value turned out to be 0.13 ng/mL, the “In vitro activity: IC50” value was determined as 0.3318 ng/mL and the “In vitro activity: IC90” value was found to be 0.8168 ng/mL. For the same compound, in test [2], the “In vitro activity: (IC10)” value came to 0.29 ng/mL, the “In vitro activity: IC50” value was 0.69 ng/mL and the “In vitro activity: IC90” value worked out at 1.67 ng/mL.
